The source of these data is PMC8949503, “Radiosynthesis and Preclinical Evaluation of Bispecific PSMA/FAP Heterodimers for Tumor Imaging” (Pharmaceuticals, 2022).

A word on the IC50: it is the concentration needed to halve the response being measured. Low readings indicate inhibition by little substance, high ones a need for much substance.

The target in one data set is T1, FAP (Homo sapiens, UniProt Q12884).
T1 construct: expressed in transfected cells
T1 sequence (Q12884 1-760): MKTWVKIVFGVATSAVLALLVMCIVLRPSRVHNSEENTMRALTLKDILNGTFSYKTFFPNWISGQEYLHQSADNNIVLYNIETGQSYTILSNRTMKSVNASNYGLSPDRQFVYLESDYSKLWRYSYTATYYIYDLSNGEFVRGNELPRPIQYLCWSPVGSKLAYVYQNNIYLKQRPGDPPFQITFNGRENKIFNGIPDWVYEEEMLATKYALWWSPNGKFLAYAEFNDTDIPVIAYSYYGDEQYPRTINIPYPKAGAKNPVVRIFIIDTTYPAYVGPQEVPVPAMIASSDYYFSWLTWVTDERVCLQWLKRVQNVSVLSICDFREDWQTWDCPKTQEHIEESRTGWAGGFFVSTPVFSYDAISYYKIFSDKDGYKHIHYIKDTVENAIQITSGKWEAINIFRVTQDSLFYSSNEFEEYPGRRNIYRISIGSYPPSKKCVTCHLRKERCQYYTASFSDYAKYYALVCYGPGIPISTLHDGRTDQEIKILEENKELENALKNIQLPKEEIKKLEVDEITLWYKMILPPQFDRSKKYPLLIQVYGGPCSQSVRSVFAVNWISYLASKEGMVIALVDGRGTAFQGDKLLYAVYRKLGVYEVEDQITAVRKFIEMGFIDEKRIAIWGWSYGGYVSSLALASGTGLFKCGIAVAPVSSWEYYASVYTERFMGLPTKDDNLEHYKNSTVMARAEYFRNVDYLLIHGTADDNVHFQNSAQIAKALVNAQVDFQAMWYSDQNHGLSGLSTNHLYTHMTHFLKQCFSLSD
Put plainly: competitive binding to FAP on A549-FAP cells vs [18F]FAPI-42. Particulars: for IC50: competition with [18F]FAPI-42, 60 min 37 °C. The protocol:
(§1) PSMA-positive 22Rv1 cells (purchased from Institute of Biochemistry and Cell Biology, Shanghai, China) and stably FAP-transfected A549-FAP cells (acquired using lentiviral infection) were used for the cell-based experiments. The 22Rv1 cells were cultivated in RPMI-1640 medium (Gibco) at 37 °C/5% carbon dioxide, while the A549-FAP cells were cultivated in DMEM medium. Both media were supplemented with 10% heat-inactivated fetal bovine serum (FBS) and 1% penicillin/streptomycin (Gibco). Puromycin (1 µg/mL) was also added to the media to maintain FAP expression.
(§2) Cells were seeded in 12-well plates 2 days in advance to achieve a final confluence of approximately 80–90% (4–5 × 10^5 cells/well). The medium was displaced by 1 mL fresh medium without FBS. The method of cell studies was similar to a method reported previously. For the competitive binding experiments, cells were incubated with the known radiotracers ([^18F]FAPI-42 for the FAP receptor and [^18F]AlF-PSMA-BCH for PSMA) in the presence of 7 different concentrations (10^−5–10^−11 M) of the corresponding unlabeled heterodimers or corresponding monomer and incubated for 60 min at 37 °C. In all experiments, the cells were washed twice with PBS, lysed with 1 M NaOH, and counted using a γ-counter. IC50 values were calculated by fitting the data using a nonlinear regression algorithm (implemented in SPSS). For the radioligand binding studies, the cells were incubated for 5, 15, 30, 60, or 120 min at 37 °C after the addition of the heterodimer or corresponding monomeric radiotracer radiotracers. The blocking experiments were determined by adding the corresponding competitors (4.4 μM 2-PMPA for 22Rv1 cells and 2.3 μM DOTA-FAPI-04 for A549-FAP cells). Radioactivity was measured using a γ-counter, normalized to 1 million cells (1 mio cells), and calculated as the percentage of the applied dose (%ID/1 mio cells). For the internalization experiments, the cells were incubated with the radiolabeled compound for 60 min, washed twice with 1 mL PBS, and then incubated for 10 min with 1 mL glycine HCl (1 M, pH 2.2) to detach the extracellular bound tracer. Next, the cells were washed with PBS (2.0 mL) and lysed with 1 M NaOH (1.5 mL). The radioactivity of the acid wash solution (extracellularly bound tracer) and cell lysate (internalized tracer) was assessed separately using a γ-counter. For the efflux experiments, the radioactive medium was removed after 60 min incubation and replaced with non-radioactive medium. At predetermined time points of 15, 30, 60, and 120 min, the cells were washed with 1.0 mL PBS three times and then lysed. The radioactivity of the remaining cells was assessed using a γ-counter. Each experiment was conducted three times with three or four replicates per independent experiment.

In the next data set the target is T2, PSMA (Homo sapiens, UniProt Q04609).
T2 construct: PSMA-positive 22Rv1 cells; host or cells: 22Rv1 cells
The data set can be described thus: competitive binding to PSMA on 22Rv1 cells vs [18F]AlF-PSMA-BCH. Particulars: for IC50: competition with [18F]AlF-PSMA-BCH, 60 min 37 °C. The procedure: as §1, §2

Data set [1] concerns 22Rv1 tumor-bearing nude mice. The data set can be described thus: tissue biodistribution and blocking in 22Rv1 tumor-bearing nude mice. Format: in vivo. Particulars: 1 h p.i. The procedure: (§3) For the biodistribution and micro-PET imaging studies, male BALB/c nude mice (6–8 weeks) were subcutaneously inoculated with 1 × 10^7 22Rv1 or 5 × 10^6 A549-FAP cells in the right shoulder. Mice were imaged or used in the biodistribution studies when the tumor reached 5–10 mm in diameter.
(§4) Mice bearing 22Rv1 or A549-FAP (n = 4 in each group) tumors were euthanized 60 min after intravenous administration of each tracer (740–1480 KBq/mouse). In the blocking group, the same experiment was conducted by co-injecting 50 μg of 2-PMPA for mice bearing 22Rv1 tumors or 50 μg of DOTA-FAPI-04 for mice bearing A549-FAP tumors. The organs of interest and tumors were quickly dissected and weighed. Radioactivity was assessed using a γ-counter and calculated as the percentage injected dose per gram (%ID/g).

In data set [2] the test system is A549-FAP tumor-bearing nude mice. Put plainly: tissue biodistribution and blocking in A549-FAP tumor-bearing nude mice. Format: in vivo. Particulars: 1 h p.i. The procedure: as §3, §4

SMILES strings stand for the structures.

T2 sequence (Q04609 whole entry): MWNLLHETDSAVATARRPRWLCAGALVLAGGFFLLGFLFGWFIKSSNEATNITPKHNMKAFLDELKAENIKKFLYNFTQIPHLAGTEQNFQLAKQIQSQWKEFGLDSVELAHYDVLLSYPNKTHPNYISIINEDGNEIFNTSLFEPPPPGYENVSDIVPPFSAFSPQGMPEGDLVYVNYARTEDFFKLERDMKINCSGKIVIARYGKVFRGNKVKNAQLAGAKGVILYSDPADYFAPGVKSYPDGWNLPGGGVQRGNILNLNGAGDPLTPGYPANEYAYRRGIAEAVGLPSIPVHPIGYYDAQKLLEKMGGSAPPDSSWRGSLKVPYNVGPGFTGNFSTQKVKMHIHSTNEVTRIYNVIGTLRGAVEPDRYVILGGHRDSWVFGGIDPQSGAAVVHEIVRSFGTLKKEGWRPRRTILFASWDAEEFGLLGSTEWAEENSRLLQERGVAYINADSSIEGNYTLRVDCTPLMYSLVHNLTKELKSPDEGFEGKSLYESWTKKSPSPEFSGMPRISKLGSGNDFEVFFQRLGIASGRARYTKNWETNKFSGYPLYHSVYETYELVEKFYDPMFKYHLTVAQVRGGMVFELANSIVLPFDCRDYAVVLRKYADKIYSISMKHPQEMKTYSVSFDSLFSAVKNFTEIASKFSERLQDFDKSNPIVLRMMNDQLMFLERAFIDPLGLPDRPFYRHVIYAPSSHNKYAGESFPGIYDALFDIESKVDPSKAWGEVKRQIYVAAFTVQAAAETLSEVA

`N#C[C@@H]1CC(F)(F)CN1C(=O)CNC(=O)c1ccnc2ccc(OCCCN3CCN(C(=O)CN4CCN(CC(=O)O)CCN(CC(=O)O)CC4)CC3)cc12` [NOTA-FAPI-42, reference compound] yielded a half-inhibitory concentration (IC50) on FAP of 14.5 nM. That is a double-digit nanomolar value.

At PSMA, `O=C(O)CC[C@H](NC(=O)N[C@@H](CCCCNC(=O)[C@@H](Cc1ccc2ccccc2c1)NC(=O)C1CCC(CNC(=O)CN2CCN(CC(=O)O)CCN(CC(=O)O)CC2)CC1)C(=O)O)C(=O)O` (stereo partly drawn) [NOTA-PSMA-BCH, reference compound] displayed an IC50 of 2.5 nM.

With `N#C[C@@H]1CC(F)(F)CN1C(=O)CNC(=O)c1ccnc2ccc(OCCCC(=O)NCCCC[C@H](NC(=O)CN3CCN(CC(=O)O)CCN(CC(=O)O)CC3)C(=O)NCC3CCC(C(=O)N[C@H](Cc4ccc5ccccc5c4)C(=O)NCCCC[C@H](NC(=O)N[C@@H](CCC(=O)O)C(=O)O)C(=O)O)CC3)cc12` (stereo partly drawn) [NOTA-PSMA-FAPI-01], on FAP, the “fold higher in potency than the monomer NOTA-FAPI-42” value was “approximately 9 fold” and the IC50 was found to be 1.7 nM. Also, at PSMA, the “fold less potent than the monomer NOTA-PSMA-BCH” value is given as “approximately 13 fold” and the IC50 was 33.7 nM.

For the compound `N#C[C@@H]1CC(F)(F)CN1C(=O)CNC(=O)c1ccnc2ccc(OCCCN3CCN(C(=O)CCC(=O)NCCCC[C@H](NC(=O)CN4CCN(CC(=O)O)CCN(CC(=O)O)CC4)C(=O)NCC4CCC(C(=O)N[C@H](Cc5ccc6ccccc6c5)C(=O)NCCCC[C@H](NC(=O)N[C@@H](CCC(=O)O)C(=O)O)C(=O)O)CC4)CC3)cc12` (stereo partly drawn) [NOTA-PSMA-FAPI-02], on FAP, the “fold higher in potency than the monomer NOTA-FAPI-42” value is listed as approximately 3 fold and the IC50 was determined as 5.8 nM. At PSMA, the “fold less potent than the monomer NOTA-PSMA-BCH” value is on record as approximately 4 fold and the IC50 was 9.8 nM.

As for `O=C(O)CC[C@H](NC(=O)N[C@@H](CCCCNC(=O)[C@@H](Cc1ccc2ccccc2c1)NC(=O)C1CCC(CNC(=O)CN2CCN3CCN(CC2)CC(=O)[O][Al]([18F])[O]C(=O)C3)CC1)C(=O)O)C(=O)O` (stereo partly drawn) [[^18F]AlF-PSMA-BCH], in data set [1], the “22Rv1 tumor* uptake” value is recorded as 6.44 ± 1.78 %ID/g, the Blood uptake worked out at 0.56 ± 0.19 %ID/g, the Bone uptake is 0.84 ± 0.39 %ID/g and the Brain uptake is listed as 0.14 ± 0.04 %ID/g. In data set [1], the Gall bladder uptake is given as 6.62 ± 4.25 %ID/g, the Heart uptake is 0.45 ± 0.10 %ID/g, the “Kidney* uptake” value stood at 66.10 ± 18.80 %ID/g and the Liver uptake came to 0.47 ± 0.03 %ID/g. In data set [1], this compound yielded a Lung uptake of 0.86 ± 0.25 %ID/g, a Muscle uptake of 0.31 ± 0.10 %ID/g, a Small intestine uptake of 0.78 ± 0.12 %ID/g and a Spleen uptake of 1.33 ± 0.54 %ID/g. Moreover, the Stomach uptake in data set [1] is given as 0.41 ± 0.05 %ID/g.

With `N#C[C@@H]1CC(F)(F)CN1C(=O)CNC(=O)c1ccnc2ccc(OCCCN3CCN(C(=O)CN4CCN5CCN(CC4)CC(=O)[O][Al]([F])[O]C(=O)C5)CC3)cc12` [[^18F]FAPI-42, reference compound], in data set [2], the A549-FAP tumor uptake amounted to 5.25 ± 0.27 %ID/g, the Blood uptake came to 1.52 ± 0.22 %ID/g, the Bone uptake is listed as 7.29 ± 1.52 %ID/g and the Brain uptake was 0.10 ± 0.01 %ID/g. Moreover, in data set [2], the Gall bladder uptake worked out at 10.58 ± 0.83 %ID/g, the Heart uptake is reported as 0.76 ± 0.09 %ID/g, the Kidney uptake is 1.86 ± 0.11 %ID/g and the Liver uptake was 0.83 ± 0.19 %ID/g. For the same compound, in data set [2], the Lung uptake was 0.96 ± 0.11 %ID/g, the Muscle uptake is 1.86 ± 0.32 %ID/g, the Small intestine uptake amounted to 2.85 ± 0.91 %ID/g and the Spleen uptake is 0.64 ± 0.04 %ID/g. In data set [2], this compound came in with a Stomach uptake of 0.56 ± 0.03 %ID/g.
